Test results taken from ChEMBL document CHEMBL1142486, “Anti-inflammatory activities of furanoditerpenoids and other constituents from Fibraurea tinctoria” (2008).

What was measured:
Mus musculus [1] = test: Antiinflammatory activity against carrageenan-induced paw edema in ICR mouse at 4 mg/kg, ip administered 30 mins before carrageenan challenge assessed after 0.5 hrs; type: functional; conditions: route intraperitoneal
Mus musculus [2] = test: Antiinflammatory activity against carrageenan-induced paw edema in ICR mouse at 4 mg/kg, ip administered 30 mins before carrageenan challenge assessed after 1 hr; type: functional; conditions: route intraperitoneal
Mus musculus [3] = test: Antiinflammatory activity against carrageenan-induced paw edema in ICR mouse at 4 mg/kg, ip administered 30 mins before carrageenan challenge assessed after 2 hrs; type: functional; conditions: route intraperitoneal
Mus musculus [4] = test: Antiinflammatory activity against carrageenan-induced paw edema in ICR mouse at 4 mg/kg, ip administered 30 mins before carrageenan challenge assessed after 3 hrs; type: functional; conditions: route intraperitoneal
Mus musculus [5] = test: Antiinflammatory activity against carrageenan-induced paw edema in ICR mouse at 4 mg/kg, ip administered 30 mins before carrageenan challenge assessed after 4 hrs; type: functional; conditions: route intraperitoneal
Mus musculus [6] = test: Antiinflammatory activity against carrageenan-induced paw edema in ICR mouse at 4 mg/kg, ip administered 30 mins before carrageenan challenge assessed after 5 hrs; type: functional; conditions: route intraperitoneal
Mus musculus [7] = test: Antiinflammatory activity against carrageenan-induced paw edema in ICR mouse at 50 mg/kg, ip administered 30 mins before carrageenan challenge assessed after 0.5 hrs; type: functional; conditions: route intraperitoneal
Mus musculus [8] = test: Antiinflammatory activity against carrageenan-induced paw edema in ICR mouse at 50 mg/kg, ip administered 30 mins before carrageenan challenge assessed after 1 hr; type: functional; conditions: route intraperitoneal
Mus musculus [9] = test: Antiinflammatory activity against carrageenan-induced paw edema in ICR mouse at 50 mg/kg, ip administered 30 mins before carrageenan challenge assessed after 2 hrs; type: functional; conditions: route intraperitoneal
Mus musculus [10] = test: Antiinflammatory activity against carrageenan-induced paw edema in ICR mouse at 50 mg/kg, ip administered 30 mins before carrageenan challenge assessed after 3 hrs; type: functional; conditions: route intraperitoneal
Mus musculus [11] = test: Antiinflammatory activity against carrageenan-induced paw edema in ICR mouse at 50 mg/kg, ip administered 30 mins before carrageenan challenge assessed after 4 hrs; type: functional; conditions: route intraperitoneal
Mus musculus [12] = test: Antiinflammatory activity against carrageenan-induced paw edema in ICR mouse at 50 mg/kg, ip administered 30 mins before carrageenan challenge assessed after 5 hrs; type: functional; conditions: route intraperitoneal
Mus musculus [13] = test: Antiinflammatory activity against carrageenan-induced paw edema in ICR mouse at 100 mg/kg, ip administered 30 mins before carrageenan challenge assessed after 0.5 hrs; type: functional; conditions: route intraperitoneal
Mus musculus [14] = test: Antiinflammatory activity against carrageenan-induced paw edema in ICR mouse at 100 mg/kg, ip administered 30 mins before carrageenan challenge assessed after 1 hr; type: functional; conditions: route intraperitoneal
Mus musculus [15] = test: Antiinflammatory activity against carrageenan-induced paw edema in ICR mouse at 100 mg/kg, ip administered 30 mins before carrageenan challenge assessed after 2 hrs; type: functional; conditions: route intraperitoneal
Mus musculus [16] = test: Antiinflammatory activity against carrageenan-induced paw edema in ICR mouse at 100 mg/kg, ip administered 30 mins before carrageenan challenge assessed after 3 hrs; type: functional; conditions: route intraperitoneal
Mus musculus [17] = test: Antiinflammatory activity against carrageenan-induced paw edema in ICR mouse at 100 mg/kg, ip administered 30 mins before carrageenan challenge assessed after 4 hrs; type: functional; conditions: route intraperitoneal
Mus musculus [18] = test: Antiinflammatory activity against carrageenan-induced paw edema in ICR mouse at 100 mg/kg, ip administered 30 mins before carrageenan challenge assessed after 5 hrs; type: functional; conditions: route intraperitoneal
RAW264.7 = test: Inhibition of LPS-induced nitric oxide production in mouse RAW264.7 cells assessed as nitrite levels in supernatant after 24 hrs by griess assay; type: functional, cell-based

| SMILES | Activity (Mus musculus [1]) [%] | Activity (Mus musculus [2]) [%] | Activity (Mus musculus [3]) [%] | Activity (Mus musculus [4]) [%] | Activity (Mus musculus [5]) [%] | Activity (Mus musculus [6]) [%] | Activity (Mus musculus [7]) [%] | Activity (Mus musculus [8]) [%] | Activity (Mus musculus [9]) [%] | Activity (Mus musculus [10]) [%] | Activity (Mus musculus [11]) [%] | Activity (Mus musculus [12]) [%] | Activity (Mus musculus [13]) [%] | Activity (Mus musculus [14]) [%] | Activity (Mus musculus [15]) [%] | Activity (Mus musculus [16]) [%] | Activity (Mus musculus [17]) [%] | Activity (Mus musculus [18]) [%] | Activity (RAW264.7) |
| --- | --- | --- | --- | --- | --- | --- | --- | --- | --- | --- | --- | --- | --- | --- | --- | --- | --- | --- | --- |
| COc1ccc2c(c1)c(CC(=O)O)c(C)n2C(=O)c1ccc(Cl)cc1 [INDOMETHACIN] | 20.77 | 21.48 | 19.53 | 18.52 | 17.04 | 16.3 | – | – | – | – | – | – | – | – | – | – | – | – | – |
| C[C@@]12C[C@H](c3ccoc3)OC(=O)C1=CC[C@]1(C)[C@H]2[C@H]2C=C[C@]1(O[C@@H]1O[C@H](CO)[C@@H](O)[C@H](O)[C@H]1O)C(=O)O2 [FIBLEUCINOSIDE] | – | – | – | – | – | – | 15.64 | 18.8 | 24.26 | 22.82 | 24.01 | 23.88 | 14.91 | 19.05 | 19.82 | 21.31 | 22.01 | 20.11 | – |
| COC(=O)C1=CCC[C@H]2[C@]3(C)C[C@@H](c4ccoc4)OC(=O)[C@H]3CC[C@@]12C [FLORIBUNDIC ESTER] | – | – | – | – | – | – | 16.27 | 20.95 | 21.51 | 21.84 | 21.85 | 20.18 | 13.07 | 15.46 | 16.78 | 13.95 | 14.9 | 13.07 | – |
| C[C@@]12C[C@H](c3ccoc3)OC(=O)[C@@H]1[C@@H](O)C[C@]1(C)[C@H]2[C@@H]2OC(=O)[C@@]1(O)[C@H]1O[C@@H]21 | – | – | – | – | – | – | – | – | – | – | – | – | – | – | – | – | – | – | Dose-dependent effect |
| C[C@@]12C[C@H](c3ccoc3)OC(=O)C1=CC[C@]1(C)[C@H]2[C@@H]2OC(=O)[C@@]1(O[C@@H]1O[C@H](CO)[C@@H](O)[C@H](O)[C@H]1O)[C@H]1O[C@@H]21 [FIBRAURINOSIDE] | – | – | – | – | – | – | 17.12 | 18.18 | 18.99 | 20.36 | 20.89 | 18.48 | 18.67 | 23.03 | 25.07 | 25.03 | 25.25 | 24.8 | Dose-dependent effect |
| C[C@@]12CC=C3C(=O)O[C@@H](c4ccoc4)C[C@@]3(C)[C@@H]1CC=CC2=O [FIBARURETIN D] | – | – | – | – | – | – | 19.44 | 24.17 | 25.18 | 21.55 | 20.67 | 20.5 | 17 | 20.91 | 22.79 | 21.47 | 23.67 | 23.41 | – |
| C[C@@]12[C@H]3CC=C[C@@]1(O[C@@H]1O[C@H](CO)[C@@H](O)[C@H](O)[C@H]1O)C(=O)O[C@@H]2C[C@]1(O)C(=O)O[C@H](c2ccoc2)C[C@@]31C | – | – | – | – | – | – | – | – | – | – | – | – | – | – | – | – | – | – | Dose-dependent effect |
| C[C@@]12C[C@H](c3ccoc3)OC(=O)C1=CC[C@]1(C)[C@H]2[C@H]2C=C[C@]1(O)C(=O)O2 [FIBLEUCIN] | – | – | – | – | – | – | 11.8 | 13.12 | 17.97 | 21.61 | 25.29 | 25.6 | 14.56 | 17.79 | 20.68 | 24.44 | 26.19 | 26.02 | – |
| C[C@@]12C[C@H](c3ccoc3)OC(=O)C1=CC[C@]1(C)[C@H]2[C@@H]2OC(=O)[C@@]1(O)[C@H]1O[C@@H]21 [FIBRAURIN] | – | – | – | – | – | – | 19.68 | 27.17 | 28.66 | 30.5 | 32.19 | 33.57 | 10.1 | 12.44 | 14 | 10.85 | 11.41 | 10.61 | Dose-dependent effect |
| C[C@@]12C[C@@H](c3ccoc3)OC(=O)[C@H]1CC[C@@H]1[C@H]2C[C@@H]2OC(=O)[C@@]1(O)[C@@H]2O [FIBRAURETIN B] | – | – | – | – | – | – | 14 | 20.1 | 24.03 | 23.43 | 26.73 | 28.34 | 11.45 | 19.17 | 16.73 | 15.21 | 17.69 | 18.16 | – |
| C[C@@]12C[C@H](c3ccoc3)OC(=O)[C@@H]1CC[C@]1(C)[C@H]2[C@@H]2OC(=O)[C@@]1(O)[C@H]1O[C@@H]21 [CHASMANTHIN] | – | – | – | – | – | – | 15.39 | 18.46 | 22.41 | 23.99 | 31.6 | 32.49 | 13.15 | 18.75 | 21.76 | 21.23 | 23.73 | 20.71 | – |
| C[C@@]12C[C@H](c3ccoc3)OC(=O)[C@@H]1CC[C@@]1(CO[C@@H]3O[C@H](CO)[C@@H](O)[C@H](O)[C@H]3O)C(=O)C=CC[C@H]12 | – | – | – | – | – | – | – | – | – | – | – | – | – | – | – | – | – | – | Dose-dependent effect |
